Values of other authors in patent US8192775B2, “Crystallization of polyol compositions, crystalline polyol composition product and use thereof” (Danisco Sweeteners Oy, priority 2002, dated 2012).

Conditions: water at 20° C.

For `OC[C@@H](O)[C@H](O)[C@@H](O)CO` [Xylitol], the solubility in water is given as 63 (w/w).
In the case of `OC[C@@H](O)[C@@H](O[C@H]1O[C@H](CO)[C@@H](O)[C@H](O)[C@H]1O)[C@H](O)[C@@H](O)CO` [Maltitol], the solubility in water is given as 62 % (w/w).
